Source: patent US9844546B2, “Antibody against human HIF hydroxylase” (OXFORD UNIVERSITY INNOVATION LIMITED, priority 2001, dated 2017)
Read-outs that look alike come from different tables or passages of the source. *1 amine or outer side, *2 acyl side, *3 side chain or, on linkers, in order; H or OH if unused. Where a SMILES comes first, the peptide text is derived from it. Bridges are numbered along the chain shown (N, C = ends). Roman numbers before positions name the chains, in order. [ ]: non-standard residue; d: D form. Actinocin(9to1) = Cc1c2oc3c(C)ccc(C(=O)[*:1])c3nc-2c(C(=O)[*:2])c(N)c1=O; NMeV = CN[C@H](C(=O)O)C(C)C; Sar = CNCC(=O)O

Assays:
[1] = tested on: HIF-α/pVHL interaction; experiment: Interaction of HIF-1α and pVHL.HA reticulocyte IVTTs, anti-HA co-immunoprecipitation; assay type: biochemical, human; settings: 100 μM added to the HIF-1α IVTT
Description: ^35S-Methionine labelled […] subunits and pVHL.HA were produced separately by IVTT (in vitro transcription and translation) in reticulocyte lysates. IVTTs were performed under different conditions, mixed, and assayed for interaction by anti-HA co-immunoprecipitation. These in vitro assays allowed analysis of the HIFα/pVHL interaction using the recombinant proteins.
Labelled HIF-1α and pVHL.HA were generated separately in reticulocyte lysates (IVTT), in the presence or absence of Co (II), desferrioxamine, or Fe(II). Lysates were mixed in various combinations, and interactions assayed by anti-HA immunoprecipitation.
• 1. G. L. Semenza, Genes Dev 14, 1983-91. (2000). • 2. N. V. Iyer, et al., Genes Dev. 12, 149-162 (1997). • 3. E. Maltepe, J. V. Schmidt, D. Baunoch, C. A. Bradfield, M. C. Simon, Nature 386, 403-407 (1997). • 4. G. L. Wang, B.-H. Jiang, E. A. Rue, G. L. Semenza, Proc. Natl. Acad. Sci. USA 92, 5510-5514 (1995). • 5. S. Salceda, J. Caro, J. Biol. Chem. 272, 22642-22647 (1997). • 6. L. E. Huang, J. Gu, M. Schau, H. F. Bunn, Proc. Natl. Acad. Sci. USA 95, 7987-7992 (1998). • 7. M. S. Wiesener, et al., Blood 92, 2260-2268 (1998). • 8. P. H. Maxwell, et al., Nature 399, 271-275 (1999). • 9. K. Iwai, et al., Proc. Natl. Acad. Sci. USA 96, 12436-12441 (1999). • 10. J. Lisztwan, G. Imbert, C. Wirbelauer, M. Gstaiger, W. Krek, Genes Dev 13, 1822-33 (1999). • 11. M. E. Cockman, et al., J Biol Chem (2000). • 12. M. Ohh, et al., Nat Cell Biol 2, 423-7. (2000). • 13. T. Kamura, et al., Proc Natl Acad Sci USA 97, 10430-5. (2000). • 14. K. Tanimoto, Y. Makino, T. Pereira, L. Poellinger, Embo J 19, 4298-309. (2000). • 15. M. A. Goldberg, S. P. Dunning, H. F. Bunn, Science 242, 1412-1415 (1988). • 16. G. L. Wang, G. L. Semenza, Blood 82, 3610-3615 (1993). • 17. G. L. Semenza, Cell 98, 281-284 (1999). • 18. Hypoxia (<0.1% oxygen) was obtained in a workstation with O2, CO2 and temperature control (Ruskinn Technologies, Leeds, UK). For hypoxic harvest, buffers were preincubated in the chamber overnight. […]

[2] = tested on: EGL-9; experiment: Recombinant EGL-9 modification of HIF-1, HA.VHL-1 capture; assay type: biochemical, C. elegans
Description: Preincubation of C. elegans HIF-1 with worm extract or recombinant EGL-9 was for 30 min at 25° C. Preincubation of mammalian HIF-α polypeptides with cell extract or recombinant enzymes was at 37° C. for 10-30 min unless otherwise stated. For assays of recombinant enzymes, 2-oxoglutarate (2 mM), iron (100 μM), and ascorbate (2 mM) were added to the reaction buffer unless otherwise indicated. Reactions performed in hypoxia were in the stated atmospheric oxygen concentration (balance nitrogen) obtained using a controlled environment Invivo2 400 hypoxia work-station (Ruskinn Technologies) and buffers pre-equilibrated with the appropriate atmosphere. Reactions (50 μl) were performed in open Eppendorf tubes with mixing and stopped by the addition of 20 volumes desferrioxamine (100 μM}.
To test whether EGL-9 could act directly on HIF-1, further preparations were made by baculoviral expression in insect cells and by expression as maltose binding protein ([…]) fusion proteins in E. coli. Since full length MBP/EGL-9 protein was insoluble when expressed in E. coli we prepared an N-terminal truncation containing residues 359-723 (MBP/ΔN.EGL-9) that preserved the predicted catalytic domain and had HIF.1 modifying activity when expressed as an IVTT. […]

[3] = tested on: rat SM-20 and human EGLN1 (PHD2), EGLN2 (PHD1), EGLN3 (PHD3); experiment: Recombinant enzymes (reticulocyte IVTT) promoting pVHL interaction with HIF-1α residues 549-582; assay type: biochemical; settings: all enzymes
Description: To test the role of these gene products in regulating the interaction between human HIFα sub-units and the VHL E3 ligase complex, we first produced the proteins by reticulocyte IVTT. […] After incubation with relevant enzyme, HIF-α substrates were mixed with extracts from 786-0/VHL cells that stably express HA tagged human pVHL, and tested for interaction by anti-HA immunoprecipitation.

[4] = tested on: EGLN-2 and EGLN-3; experiment: Modification and pVHL binding assay with reticulocyte lysate programmed with EGLN-2 or EGLN-3; assay type: biochemical, human; settings: desferrioxamine 200 μM, cobaltous chloride 200 μM
Excerpt: Protein containing HIF-1 sequence (amino acids 549-582) was generated in a reticulocyte in vitro transcription translation reaction in the presence of 100 micromolar desferrioxamine, retrieved and then exposed to […] translates containing the putative enzymes as described above. These proteins contain the critical proline (564) which can be modified by hydroxylation and which enables recognition by von Hippel Lindau tumour suppressor protein (pVHL).
The modification of the HIF-1 sequence was assayed by the binding of the HIF-1 to radiolabelled pVHL, generated by in vitro transcription and translation of a pcDNA3 vector containing the human wild type pVHL open reading frame in a rabbit reticulocyte lysate in the presence of ^35S-methionine.
Modification and pVHL binding assays were performed as described above. Rabbit reticulocyte lysate was programmed with pcDNA3 based plasmids containing no insert, an insert encoding the full open reading frame of the human homologue of C. elegans Egl-9 known as EGLN-2, or an insert encoding the full open reading frame of the human homologue known as EGLN-3. Modification was performed in the absence of additives, in the presence of oxalylglycine, oxalylglycine plus 2-oxoglutarate, 200 μM desferrioxamine or 200 μM cobaltous chloride.

[5] = tested on: HIF-α prolyl-hydroxylase (HIF-PH) of cell extract; experiment: Modifying activity (HIF-PH) of cell extract on HIF substrate (Gal/HIF-1α549-582/VP16 or 19:WT), pVHL capture assay; assay type: biochemical, mammalian
In short: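 Immunopurified HIF-1α substrate (19:WT polypeptide or Gal/HIF-1α549-582/VP16) on beads was incubated with cell extract under test conditions, washed, and tested for capture of 35S-labelled IVTT pVHL, visualised by fluorography. Hydroxylation activity was inferred from pVHL capture.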

[6] = tested on: intact cells; experiment: Entry into intact cells; assay type: cell-based
Excerpt: In this Example it is shown that HIF-1α protein and the endogenous HIF target gene encoding carbonic anhydrase 9 (CA-9) are induced by exposure of cells to the PHD inhibitor, dimethyl oxalylglycine. […] The esterified form, dimethyloxalylglycine, has therefore been used to deliver the compound to tissue culture cells.
Application of an esterified form, dimethyloxalylglycine, to tissue culture cells results in stabilisation of HIF alpha chains (Example 1) and activation of transcription of endogenous HIF target genes (Example 5).

[7] = tested on: HIF hydroxylase (HPH activity); experiment: HIF hydroxylase (HPH) inhibition, statements of the description; assay type: biochemical
[8] = tested on: collagen prolyl-hydroxylase (CPH); settings: cited from earlier work
[9] = tested on: HeLa cells; experiment: Hypoxic induction of total HIF-PH activity in HeLa cell lysates, pVHL capture assay; assay type: cell-based, human; settings: hypoxia 16 hours

| SMILES | capture of HIF-1α by pVHL.HA [1] | effect on recombinant EGL-9 activity [2] | inhibition of enzyme activity promoting pVHL interaction with HIF-1α 549-582 [3] | Enzyme activity (modification of HIF-1 to VHL binding form) [4] | Inhibition of pVHL capture ([5]; 0-2000 μM inhibitor, RCC4 cell extract, 5 or 100 μM FeCl2) | inhibition of modifying activity of cell extract on 19:WT (pVHL capture) ([5]; N-oxalylglycine 0.2-1 mM, overcome by 5 mM 2-oxoglutarate) | ability to enter intact cells [6] | inhibition of HIF hydroxylase / HPH [7] | inhibition of HIF hydroxylase / HPH ([7]; listed as N-oxaloglycine) | inhibition of CPH [8] | effect on induction of total HIF-PH activity by hypoxia [9] |
| --- | --- | --- | --- | --- | --- | --- | --- | --- | --- | --- | --- |
| [Cl-].[Cl-].[Co+2] [Co(II), cobaltous chloride] | greatly diminished capture | direct inhibition | strongly inhibited | diminished |  |  |  |  |  |  |  |
| O=C(O)CNC(=O)C(=O)O [N-oxalylglycine] |  |  | strongly inhibited | diminished | increased with the concentration of inhibitor | completely inhibit | incapable of entering intact cells | act as inhibitors | inhibitor | inhibitor |  |
| Cc1c2oc3c(C)ccc(C(=O)N[C@@H]4C(=O)N[C@H](C(C)C)C(=O)N5CCC[C@H]5C(=O)N(C)CC(=O)N(C)[C@@H](C(C)C)C(=O)O[C@@H]4C)c3nc-2c(C(=O)N[C@@H]2C(=O)N[C@H](C(C)C)C(=O)N3CCC[C@H]3C(=O)N(C)CC(=O)N(C)[C@@H](C(C)C)C(=O)O[C@@H]2C)c(N)c1=O [actinomycin D] (I: T[dV]P[Sar][NMeV] / II: T[dV]P[Sar][NMeV]; ester I:1-I:C, II:1-II:C; linker I:N-II:N via Actinocin(9to1)) |  |  |  |  |  |  |  |  |  |  | blocked |
